Data on 72 compounds can be found in patent US10278942B2 (PELOTON THERAPEUTICS, INC., priority 2015, dated 2019).

In one test the target is T1, HIF-2α HIS TAG-PASB Domain (Homo sapiens, UniProt Q99814).
T1 construct: 100 nM HIF-2α HIS TAG-PASB Domain
T1 sequence (Q99814 240-350 limits assumed): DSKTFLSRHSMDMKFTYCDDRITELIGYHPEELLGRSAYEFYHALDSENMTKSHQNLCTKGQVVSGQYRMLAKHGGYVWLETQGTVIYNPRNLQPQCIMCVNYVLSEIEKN
Put plainly: HIF-2α Scintillation Proximity Assay (SPA). Type of test: binding. Conditions: Scintillation Proximity Assay IC50 (nM). The protocol: The total assay volume was about 100 μL in the following configuration: 2 μL compound in 100% DMSO, 88 μL buffer with protein and probe and 10 μL of SPA beads. […] The percent inhibition was determined and IC50 values were calculated using the Dotmatics system based on the following equation: % inhibition=[(high control−sample)/(high control−low control)]×100.
On the technique in general: Scintillation proximity formats need no separation of bound from free tracer.
For the compound `N#Cc1cncc(Oc2ccc3c(c2C(F)F)C(O)C(F)(F)S3(=O)=O)c1` (stereo not drawn) [Compound 383], the half-inhibitory concentration (IC50) lay in the range of 50 to 249 nM.
On to `CC1(C)C(O)c2c(ccc(Oc3cc(F)cc(Cl)c3)c2Br)S1(=O)=O` (stereo not drawn) [Compound 406], for which the IC50 was > 1000 nM.
Same read-out and setting: the figure for `N#Cc1cc(F)cc(Oc2ccc3c(c2C(F)F)C(=O)C(F)(F)S3(=O)=O)c1` [Compound 385] is > 1000 nM.

Still in this test, the particulars now being: read-out: Scintillation Proximity Assay IC50.
Take `CC(Oc1ccc(S(=O)(=O)C(F)(F)F)c2c1CC(F)(F)C2O)C(N)=O` (stereo not drawn) [Compound 649]: the 50% inhibitory concentration (IC50) is > 1000 nM.
As for `COc1ccc(S(C)(=O)=O)c2c1CCC2O` (stereo not drawn) [Compound 776], the IC50 is > 1000 nM.
For the compound `O=C1c2c(S(=O)(=O)C(F)F)ccc(Oc3ccc(F)c(Br)c3)c2CC1(F)F` [Compound 193], the half-inhibitory concentration (IC50) was 250 to 1000 nM.
As for `O=S(=O)(c1ccc(OC2CCOC2)c2c1C(O)CC2)C(F)(F)F` (stereo not drawn) [Compound 596], the IC50 is > 1000 nM.
Turning to `O=C(O)COc1ccc(S(=O)(=O)C(F)(F)F)c2c1CC(F)(F)C2O` (stereo not drawn) [Compound 633], the half-maximal inhibitory concentration (IC50) was > 1000 nM.
The same measure, in the same setting: then `CC1(C)C=C(c2ccc(S(=O)(=O)C(F)(F)F)c3c2CC(F)(F)[C@H]3O)C(O)CC1` (stereo partly drawn) [Compound 543], with > 1000 nM; and `Cc1c([S+]([O-])C(F)F)ccc(Oc2cc(F)cc(Cl)c2)c1C#N` (stereo not drawn) [Compound 37], with > 1000 nM; and `CNC(=O)C(C)Oc1ccc(S(=O)(=O)C(F)(F)F)c2c1CC(F)(F)C2O` (stereo not drawn) [Compound 645], with > 1000 nM.
In the case of `Cc1c(Oc2cc(F)cc(C#N)c2)ccc(S(=O)(=O)C(F)(F)F)c1/C=C/c1nnco1` [Compound 150], the IC50 is > 1000 nM.
As for `COCCNC1c2c(ccc(Oc3cc(F)cc(F)c3)c2Br)S(=O)(=O)C1(F)F` (stereo not drawn) [Compound 379], the IC50 is < 50 nM.
The same measure, in the same setting: the figure for `C=CCN=S(=O)(c1ccc(Oc2cc(F)cc(C#N)c2)c2c1[C@H](O)C(F)(F)C2)C(F)(F)F` (stereo partly drawn) [Compound 307] is 250 to 1000 nM.
The same measure, in the same setting: the figure for `NC1c2c(ccc(Oc3cc(F)cc(F)c3)c2C(F)F)S(=O)(=O)C1F` (stereo not drawn) [Compound 366] is > 1000 nM.
Same read-out and setting: then `O=S(=O)(c1ccc(NC2CCOCC2)c2c1[C@H](O)CC2)C(F)F` [Compound 494, (1R)-7-(difluoromethylsulfonyl)-4-(tetrahydropyran-4-ylamino)indan-1-ol], with > 1000 nM.
For the compound `O=C1CC[C@H](Oc2ccc(S(=O)(=O)C(F)(F)F)c3c2CC(F)(F)[C@H]3O)CN1` [Compound 719], the IC50 was > 1000 nM.
Still for that read-out and setting: the figure for `CS(=O)(=O)c1ccc(Nc2ccc(F)cc2)c2c1C(O)C(F)(F)C2` (stereo not drawn) [Compound 501] is > 1000 nM; for `COCCNC1c2c(ccc(Oc3cc(F)cc(C#N)c3)c2C(F)F)S(=O)(=O)C1(F)F` (stereo not drawn) [Compound 382] it is > 1000 nM.
Still for that read-out and setting: then `C/C=C/c1c(S(=O)(=O)C(F)F)ccc(Oc2cc(F)cc(C#N)c2)c1C#N` [Compound 178], with 250 to 1000 nM; and `COCCOc1ccc(S(=O)(=O)C(F)(F)F)c2c1CCC2O` (stereo not drawn) [Compound 599], with > 1000 nM.
Turning to `CC1(O)c2c(ccc(OC3CC(F)(F)C3)c2C#N)S(=O)(=O)C1(F)F` (stereo not drawn) [Compound 461], the concentration for half-maximal inhibition (IC50) was > 1000 nM.
As for `Nc1ncccc1-c1ccc(S(=O)(=O)C(F)(F)F)c2c1CC(F)(F)[C@H]2O` [Compound 539], the concentration for half-maximal inhibition (IC50) was > 1000 nM.
Same read-out and setting: then `COC1Cc2c(OCC(F)F)ccc(C(F)(F)F)c2C1O` (stereo not drawn) [Compound 668], with > 1000 nM.
Still for that read-out and setting: the figure for `O=S(=O)(c1ccc(Oc2cc(F)cc(Cl)c2)c(Cl)c1CNCC(F)(F)F)C(F)F` [Compound 47] is > 1000 nM.
Consider `CCOCC1(COc2ccc(S(=O)(=O)C(F)(F)F)c3c2CC(F)(F)[C@H]3O)COC1` [Compound 708], for which the 50% inhibitory concentration (IC50) is > 1000 nM.
Same read-out and setting: the figure for `CC(Oc1ccc(S(=O)(=O)C(F)(F)F)c2c1CC(F)(F)C2O)C(=O)O` (stereo not drawn) [Compound 646] is > 1000 nM; for `CCOc1ccc(S(=O)(=O)C(F)(F)F)c2c1CCC2O` (stereo not drawn) [Compound 589] it is > 1000 nM; for `CCOc1ccc(C#N)c2c1CC(F)(F)[C@H]2O` [Compound 674] it is > 1000 nM.
Still for that read-out and setting: the figure for `CC1(O)c2c(ccc(OCc3ccccc3)c2C#N)S(=O)(=O)C1(F)F` (stereo not drawn) [Compound 459] is > 1000 nM; for `CS(=O)(=O)c1ccc(Oc2cncc(F)c2)c2c1[C@H](O)C(F)(F)[C@@H]2F` [Compound 329] it is < 50 nM.
The same measure, in the same setting: then `CC(=O)N1CCCC(Oc2ccc(S(=O)(=O)C(F)(F)F)c3c2CC(F)(F)C3O)C1` (stereo not drawn) [Compound 627], with > 1000 nM; and `O=S(=O)(c1ccc(-c2cn[nH]c2)c2c1[C@H](O)C(F)(F)C2)C(F)(F)F` [Compound 560], with > 1000 nM; and `CC1(C)C=C(c2ccc(S(=O)(=O)C(F)(F)F)c3c2CC(F)(F)[C@H]3O)C(=O)CC1` [Compound 541], with > 1000 nM.
Regarding `O[C@H]1c2c(C(F)(F)F)ccc(OC3CC(F)(F)C3)c2CC1(F)F` [Compound 587], the IC50 was < 50 nM.
As for `O=C1CC[C@@H](Oc2ccc(S(=O)(=O)C(F)(F)F)c3c2CC(F)(F)[C@H]3O)CN1` [Compound 720], the half-maximal inhibitory concentration (IC50) is > 1000 nM.
As for `CS(=O)(=O)c1ccc(Oc2ccc(F)c(C#N)c2)c2c1[C@H](O)C(F)(F)[C@@H]2F` [Compound 327], the half-maximal inhibitory concentration (IC50) is < 50 nM.
On to `O=S(=O)(c1ccc(C2CC2)c2c1C(O)CC2)C(F)(F)F` (stereo not drawn) [Compound 512], for which the concentration for half-maximal inhibition (IC50) is > 1000 nM.
Same read-out and setting: then `O=S(=O)(c1ccc(Oc2cccn3ccnc23)c2c1C(O)C(F)(F)C2)C(F)(F)F` (stereo not drawn) [Compound 246], with > 1000 nM; and `O=S(=O)(c1ccc(OC2CCOCC2)c2c1C(O)CC2)C(F)(F)F` (stereo not drawn) [Compound 745], with > 1000 nM.
Same read-out and setting: the figure for `COc1ccc(S(=O)(=O)C(F)(F)F)c2c1CC(F)(F)C2O` (stereo not drawn) [Compound 590] is > 1000 nM.
On the same count and under the same terms, the figure for `CS(=O)(=O)c1ccc(Nc2cc(F)cc(C#N)c2)c2c1C(O)C(F)(F)C2` (stereo not drawn) [Compound 502] is > 1000 nM; for `CC(=O)Nc1ccc(S(=O)(=O)C(F)(F)F)c2c1CCC2O` (stereo not drawn) [Compound 518] it is > 1000 nM; for `CS(=N)(=O)c1ccc(Oc2cc(F)cc(Cl)c2)c(C#N)c1Cl` (stereo not drawn) [Compound 180] it is > 1000 nM.
In the case of `N#Cc1cc(F)cc(Oc2ccc3c(c2Br)[C@@H](O)CS3(=O)=O)c1` [Compound 415], the IC50 was > 1000 nM.
For `C/C(=N\O)c1c(S(=O)(=O)C(F)(F)F)ccc(Oc2cc(F)cc(Cl)c2)c1Br` [Compound 106], the IC50 lay within 250 to 1000 nM.
As to `Cc1c(Cl)cccc1Oc1ccc(S(=O)(=O)C(F)(F)F)cc1Br` [Compound 171], the half-inhibitory concentration (IC50) was > 1000 nM.
The same measure, in the same setting: then `O=C1c2c(C(F)(F)F)ccc(OCC(F)F)c2CC1F` (stereo not drawn) [Compound 694], with > 1000 nM; and `O=C(O)Cc1ccc(S(=O)(=O)C(F)(F)F)c2c1CC[C@H]2O` [Compound 524, (R)-2-(1-hydroxy-7-((trifluoromethyl)sulfonyl)-2,3-dihydro-1H-inden-4-yl)acetic acid], with > 1000 nM.
Still for that read-out and setting: the figure for `O=S(=O)(c1ccc(Oc2cc(F)cc(Cl)c2)c(CCCO)c1)C(F)(F)F` [Compound 126] is > 1000 nM; for `CS(=O)(=NC#N)c1ccc(Oc2cc(F)cc(C#N)c2)c2c1C(O)CC2` (stereo not drawn) [Compound 68] it is > 1000 nM.
Turning to `NS(=O)(=O)c1ccc(Oc2cc(F)cc(F)c2)c2c1C(O)CC2` (stereo not drawn) [Compound 257], the IC50 was > 1000 nM.
The same measure, in the same setting: the figure for `Cc1c(S(C)(=O)=O)ccc(Oc2cc(F)cc(C#N)c2)c1C#N` [Compound 51] is > 1000 nM.
The same measure, in the same setting: then `Fc1cc(F)cc(Oc2ncc(Br)c3c2CCC3)c1` [Compound 469, 4-bromo-1-(3,5-difluorophenoxy)-6,7-dihydro-5H-cyclopenta[c]pyridine], with > 1000 nM; and `OC1c2c(Br)ccc(OCC(F)F)c2CC1(F)F` (stereo not drawn) [Compound 687], with > 1000 nM.
On the same count and under the same terms, then `NC(=O)COc1ccc(S(=O)(=O)C(F)(F)F)c2c1CC(F)(F)C2O` (stereo not drawn) [Compound 640], with > 1000 nM; and `CC(=O)NCCOc1ccc(S(=O)(=O)C(F)(F)F)c2c1CC(F)(F)C2O` (stereo not drawn) [Compound 636], with > 1000 nM.
For `COc1ccc(-c2cn[nH]c2)c2c1CC(F)(F)C2O` (stereo not drawn) [Compound 680], the IC50 is > 1000 nM.
Turning to `Cc1c(Oc2cc(F)cc(C#N)c2)ccc(S(=O)(=O)C(F)(F)F)c1/C=C/C(=O)NCc1ccccc1` [Compound 149], the half-maximal inhibitory concentration (IC50) is > 1000 nM.
The same measure, in the same setting: then `NC(=O)Cc1ccc(S(=O)(=O)C(F)(F)F)c2c1CC(F)(F)C2O` (stereo not drawn) [Compound 526], with > 1000 nM; and `N#Cc1cncc(Oc2ccc3c(c2Br)[C@@H](O)CS3(=O)=O)c1` [Compound 420], with > 1000 nM.
As for `O=S(=O)(c1cc(C(F)(F)F)ccc1Oc1cc(F)cc(Cl)c1)C(F)(F)F` [Compound 129], the IC50 was > 1000 nM.
The same measure, in the same setting: the figure for `O=S1(=O)C[C@H](O)c2c1ccc(Oc1cccc(F)c1)c2Br` [Compound 419] is > 1000 nM; for `O=S(=O)(c1ccc(Oc2ccc(Cl)c(Cl)c2)c(Br)c1)C(F)(F)F` [Compound 169] it is > 1000 nM; for `O=S(=O)(c1ccc(Oc2cccc(C(F)(F)F)c2)c(Br)c1CO)C(F)F` [Compound 89] it is > 1000 nM.
Take `N=S1(=O)CC(O)c2c1ccc(Oc1cc(F)cc(F)c1)c2C(F)F` (stereo not drawn) [Compound 396]: the IC50 was > 1000 nM.
The same measure, in the same setting: the figure for `CS(=O)(=O)c1ccc(Nc2cncc(Cl)c2)c2c1C(O)CC2` (stereo not drawn) [Compound 499] is > 1000 nM; for `O=S(=O)(c1ccc(Oc2c(F)cccc2F)c(Br)c1)C(F)(F)F` [Compound 176] it is > 1000 nM; for `COC(=O)C(C)Oc1ccc(S(=O)(=O)C(F)(F)F)c2c1CC(F)(F)C2O` (stereo not drawn) [Compound 648] it is 250 to 1000 nM.
In the case of `O=S(=O)(c1ccc(CCO)c2c1C(O)C(F)(F)C2)C(F)(F)F` (stereo not drawn) [Compound 520], the IC50 is > 1000 nM.
As to `Cn1nccc1-c1ccc(S(=O)(=O)C(F)(F)F)c2c1CC(F)(F)[C@H]2O` [Compound 559], the half-inhibitory concentration (IC50) was > 1000 nM.
Same read-out and setting: then `CS(=O)(=O)c1ccc(OC2CC2)c2c1[C@H](O)C(F)(F)[C@@H]2F` [Compound 773], with > 1000 nM.

A word on the IC50: it is the midpoint of a concentration-inhibition curve.
